Measured values taken from PubChem BioAssay (NCI).
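Growth conditions: 96-well plates. Treatment: test compound, 48 hours, 5 concentrations. Analysis: linear interpolation between bracketing concentrations; unreached endpoints set to highest concentration. The concentration for full growth arrest is given as TGI.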

Experiments:
Assay in all cases: inhibition of tumour cell growth, NCI panel, 48 h
PC-3 prostate = tested on: PC-3 prostate
M14 melanoma = tested on: M14 melanoma
HCT-15 colon = tested on: HCT-15 colon
SW-620 colon = tested on: SW-620 colon
DU-145 prostate = tested on: DU-145 prostate
SK-MEL-5 melanoma = tested on: SK-MEL-5 melanoma
NCI-H23 lung = tested on: NCI-H23 lung
SNB-75 CNS = tested on: SNB-75 CNS
ACHN renal = tested on: ACHN renal
SF-295 CNS = tested on: SF-295 CNS
LOX IMVI melanoma = tested on: LOX IMVI melanoma
OVCAR-4 ovarian = tested on: OVCAR-4 ovarian
HOP-92 NSCLC = tested on: HOP-92 NSCLC
SF-268 CNS = tested on: SF-268 CNS
MDA-N = tested on: MDA-N
A498 renal = tested on: A498 renal
SN12C renal = tested on: SN12C renal
IGROV1 ovarian = tested on: IGROV1 ovarian
OVCAR-3 ovarian = tested on: OVCAR-3 ovarian

Row | Compound | TGI (PC-3 prostate) [µM] | TGI (M14 melanoma) [µM] | TGI (HCT-15 colon) [µM] | TGI (SW-620 colon) [µM] | TGI (DU-145 prostate) [µM] | TGI (SK-MEL-5 melanoma) [µM] | TGI (NCI-H23 lung) [µM] | TGI (SNB-75 CNS) [µM] | TGI (ACHN renal) [µM] | TGI (SF-295 CNS) [µM] | TGI (LOX IMVI melanoma) [µM] | TGI (OVCAR-4 ovarian) [µM] | TGI (HOP-92 NSCLC) [µM] | TGI (SF-268 CNS) [µM] | TGI (MDA-N) [µM] | TGI (A498 renal) [µM] | TGI (SN12C renal) [µM] | TGI (IGROV1 ovarian) [µM] | TGI (OVCAR-3 ovarian) [µM]
1 | Cc1cc(C)c(C2=NOC(c3ccccc3)(c3cc(=O)n(-c4ccccc4)s3)O2)c(C)c1 (configuration not stated) | > 100 | 76.8 | 41 | > 100 | > 100 | > 100 | 53.4 | > 100 | 52.2 | > 100 | 30.7 | > 100 | 62.5 | > 100 | > 100 | > 100 | > 100 | > 100 | 
2 | COc1ccccc1NC(=O)/C(Cc1nc2ccc([N+](=O)[O-])cc2[nH]c1=O)=N\NC(=O)C[N+](C)(C)C | > 100 | > 100 | > 100 | > 100 | > 100 | > 100 | > 100 | > 100 | > 100 | > 100 | > 100 | > 100 | > 100 | > 100 | 36 |  | > 100 | > 100 | > 100
3 | Cc1ccc(-c2nc3ccc(Cl)cc3[nH]2)cc1 | > 100 | > 100 | > 100 | > 100 | > 100 | > 100 | > 100 | > 100 | > 100 | > 100 | > 100 | > 100 | > 100 | > 100 | > 100 |  | > 100 | > 100 | > 100
4 | CSc1nc(N)c(NC2OC(CO)C(O)C2O)c(=O)[nH]1 (configuration not stated) | > 100 | > 100 | > 100 | > 100 | > 100 | > 100 |  | > 100 |  | > 100 | > 100 | > 100 |  | > 100 | > 100 | > 100 | > 100 | > 100 | > 100
5 | COc1ccc(NC2Oc3cc4c(cc3C(c3cccc(OC)c3OC)C2C)OCO4)cc1 (configuration not stated) | 51.3 | > 100 | > 100 | > 100 | > 100 | 56 | 79.5 | > 100 | > 100 | 32.3 | > 100 |  | 25.1 | > 100 | > 100 | 71.1 | > 100 | > 100 | > 100
6 | COCn1c2ccc(OC(C)=O)cc2c2c(=O)oc(N(C)C)nc21 | > 100 | > 100 | > 100 | > 100 | > 100 | > 100 | > 100 | > 100 | > 100 | > 100 | > 100 | > 100 | > 100 |  | > 100 | > 100 | > 100 | > 100 | 
7 | C=CCOC(=O)/C(=C\c1ccc(OC)c(OC)c1)c1ccc(OC)c(OC)c1 | > 100 | > 100 | > 100 | > 100 | > 100 | > 100 | > 100 | 36.3 | > 100 | > 100 |  |  | > 100 | > 100 | > 100 | > 100 | > 100 | > 100 | > 100
8 | CC1CC[C@@H](C(C)C)[C@H](Oc2nnc(C3OC(CO)C(O)C3O)o2)C1 (some centres not stated) | > 100 |  | > 100 | > 100 | > 100 | > 100 | > 100 | > 100 | > 100 | > 100 | > 100 | > 100 | > 100 | > 100 | > 100 | > 100 | > 100 |  | > 100
9 | CC1C(c2ccccc2)OP(=O)(OC(C#N)c2ccccc2)N1C (configuration not stated) | > 100 | > 100 | > 100 | > 100 | > 100 | > 100 | > 100 | > 100 | > 100 | > 100 | > 100 |  | > 100 | > 100 | > 100 | > 100 | > 100 | > 100 | > 100
10 | CC1(C)CC(=O)c2c(nc3ccc4ccccc4c3c2-c2ccc(NC(=O)CCCC(=O)Nc3ccc(-c4c5c(nc6ccc7ccccc7c46)CC(C)(C)CC5=O)cc3)cc2)C1 | > 100 | > 100 | > 100 | > 100 | > 100 | > 100 | > 100 | > 100 | > 100 | > 100 | > 100 |  | > 100 | > 100 | > 100 | > 100 | > 100 | > 100 | > 100
11 | Cc1ccc(N2C(=O)C3c4[nH]c5ccccc5c4C4CCC(C(C)(C)C)CC4C3C2=O)cc1 (configuration not stated) | 31.8 | 35.6 | > 100 | > 47.4 | 5.82 | 36.4 | 32.4 |  | 13.6 | 24.3 | 26.6 | 22.7 | 32.9 | 18.9 | 44.1 | 31.3 | 24.7 | 25.2 | 8.62
12 | Cc1c(/C=N/NC(=S)Nc2ccccc2Cl)c(=O)n(-c2ccccc2)n1C | > 100 | > 100 | > 100 | > 100 | > 100 | > 100 |  | 54.6 |  | 89.4 | > 100 | > 100 |  | > 100 | > 100 | > 100 | > 100 | > 100 | > 100
13 | CC1(CCC2C=CCC2)CCCNC1=S (configuration not stated) | > 10 | > 10 | > 10 | > 10 | > 10 | > 10 | > 10 | > 10 | > 10 | > 10 | > 10 |  | > 10 | > 10 | > 10 | > 10 | > 10 | > 10 | > 10
